Reference: patent US9868737B2, “Pyridino[1,2-A]pyrimidone analogue used as MTOR/P13K inhibitor” (CISEN PHARMACEUTICAL CO., LTD., priority 2014, dated 2018)
Where two headings read alike, the source gives them in different places.

Test system: MCF-7 cells
Experiment: In vitro test of cell activity (MCF-7 cells, insulin stimulation, ELISA-One fluorescence)
Format: cell-based
Settings: Homo sapiens, MCF7, MCF-7 cells; for inhibition at 0.5 µM: conc. 0.5 μM
Experimental: Example In Vitro Tests of Cell Activities Experimental Steps and Methods:
1) MCF-7 cells were inoculated at the density of 2.5×10^4 cells/well into 96-well plates (the culture medium used should be a complete culture medium containing 10% FBS).
2) On the next day, the medium in each well was drawn out. A certain concentration (preliminary screening) or a series of concentration (IC50 test) of compounds were dissolved in a culture medium without serum and added to the 96-well plates to culture cells for 2 hours.
3) Insulin was dissolved in a culture medium without serum, added to the cultured cells and incubated for 30 minutes, wherein the final concentration of insulin was […].
4) A lysis solution was prepared according to the following method during the waiting period for the reaction:
a) Enhancer solution was removed from the refrigerator to melt in advance.
b) Enhancer solution was diluted 10 times with the 5× Lysis Buffer to give a concentrated lysis solution.
c) The concentrated lysis solution was diluted 5 times with double distilled water to give the lysis solution.
5) The medium in each well was completely removed and each well was quickly rinsed with PBS once.
6) 150 μl of the freshly prepared lysis solution was added to each well and shaked at room temperature for 10 minutes.
7) After confirming that all cells were detached, the lysis solution together with the cell fragments was transferred into a 1.5 ml tube.
8) The tube was shaked on vortes mixer to make the lysis solution and cells mix completely and then the mixture was centrifugated at 4° C. under 12000 g for 10 minutes.
9) The number of strips of ELISA-one micro-well plate that is required was calculated. The needless strips were removed from the frame, put back into the storage bag and sealed. Before the strips of micro-well plate were used, 200 μl of double distilled water was used to rinse each well to remove preservative.
10) 50 μl of antibody mixture was added to each well. (The antibody mixture solution was prepared by mixing the medium antibody reagent and the enzyme labeled antibody reagent with an equal proportion. The preparation of antibody mixture didn't need vortex.)
11) 25 μl of cell lysates was added to each well of ELISA-One micro-well plate. The micro-well plate was covered with adhesive sealing film and incubated on a micro-well plate oscillation instrument at room temperature for 1 hour.
12) Each well was rinsed with 150 μl of 1× rinsing buffer 3 times. After the last rinsing, the rinsing buffer in the well was completely removed. If necessary, the 1× rinsing buffer could be allowed to stay in the micro-well plate for up to 30 minutes so that the substrate mixed solution could be prepared during such time period.
13) The substrate mixed solution should be prepared just before each use, 10 μl of the substrate mixed solution was added to each well and the micro-well plate was sealed with tin-foil and incubated on the micro-well plate oscillation instrument at room temperature for 10 minutes.
14) 10 μl of stop solution was added to each well and mixed slightly (5-10 seconds) on the micro-well plate oscillation instrument.
15) The corresponding ELISA-One filter group was assembled and used to read the fluorescence signal intensity.

COc1ncc(-c2cn3c(=O)ccnc3cn2)cc1NS(=O)(=O)c1ccc(F)cc1 [compound 43]
inhibition at 0.5 µM (read-out: % inhibition AKT): 17.8%
inhibition at 0.5 µM (read-out: % inhibition p70s6k): 16.2%

COc1ncc(-c2cn3c(=O)ccnc3cn2)cc1NS(=O)(=O)c1ccccc1F [compound 44]
inhibition at 0.5 µM (read-out: % inhibition AKT): 6.3%
inhibition at 0.5 µM (read-out: % inhibition p70s6k): 4.7%

COc1ncc(-c2cn3c(=O)ccnc3cn2)cc1NS(=O)(=O)c1ccc(C)nc1 [compound 45]
inhibition at 0.5 µM (read-out: % inhibition AKT): 15.2%
inhibition at 0.5 µM (read-out: % inhibition p70s6k): -1%

COc1ncc(-c2cn3c(=O)ccnc3cn2)cc1NS(=O)(=O)c1c(F)cccc1F [compound 46]
inhibition at 0.5 µM (read-out: % inhibition AKT): 60.3%
inhibition at 0.5 µM (read-out: % inhibition p70s6k): 13.3%

COc1ncc(-c2cn3c(=O)ccnc3cn2)cc1NS(=O)(=O)c1ccccc1Cl [compound 51]
inhibition at 0.5 µM (read-out: % inhibition AKT): 64.1%
inhibition at 0.5 µM (read-out: % inhibition p70s6k): 13.6%

COc1ncc(-c2ccc3nccc(=O)n3c2C)cc1NS(=O)(=O)c1ccc(F)cc1F [compound 52, 2,4-difluoro-N-(2-methoxy-5-(6-methyl-4-oxo-4H-pyrido[1,2-a]pyrimidin-7-yl)pyridin-3-yl)benzsulfamide]
inhibition at 0.5 µM (read-out: % inhibition AKT): 69.3%
inhibition at 0.5 µM (read-out: % inhibition p70s6k): 50.3%

COc1ncc(-c2ccc3nccc(=O)n3c2C)cc1NS(=O)(=O)c1cccc(F)c1 [compound 53]
inhibition at 0.5 µM (read-out: % inhibition AKT): 68%
inhibition at 0.5 µM (read-out: % inhibition p70s6k): 40.9%

COc1ncc(-c2ccc3nccc(=O)n3c2C)cc1NS(=O)(=O)c1ccccc1Cl [compound 54]
inhibition at 0.5 µM (read-out: % inhibition AKT): 83.1%
inhibition at 0.5 µM (read-out: % inhibition p70s6k): 50.8%

COc1ncc(-c2ccc3nccc(=O)n3c2C)cc1NS(=O)(=O)c1ccccc1F [compound 55]
inhibition at 0.5 µM (read-out: % inhibition AKT): 65.7%
inhibition at 0.5 µM (read-out: % inhibition p70s6k): 42.3%

COc1ncc(-c2ccc3nccc(=O)n3c2C)cc1NS(=O)(=O)c1ccc(F)cc1Cl [compound 56]
inhibition at 0.5 µM (read-out: % inhibition AKT): 80.2%
inhibition at 0.5 µM (read-out: % inhibition p70s6k): 53.3%

COc1ncc(-c2ccc3nccc(=O)n3c2C)cc1NS(=O)(=O)c1ccc(F)cc1C [compound 57]
inhibition at 0.5 µM (read-out: % inhibition AKT): 58.6%
inhibition at 0.5 µM (read-out: % inhibition p70s6k): 47.2%

COc1ncc(-c2ccc3nccc(=O)n3c2C)cc1NS(=O)(=O)c1c(F)cccc1F [compound 58]
inhibition at 0.5 µM (read-out: % inhibition AKT): 60.3%
inhibition at 0.5 µM (read-out: % inhibition p70s6k): 32.8%

COc1ncc(-c2ccc3nccc(=O)n3c2C)cc1NS(=O)(=O)c1ccc(C#N)cc1 [compound 59]
inhibition at 0.5 µM (read-out: % inhibition AKT): 59.7%
inhibition at 0.5 µM (read-out: % inhibition p70s6k): 26.5%

COc1ncc(-c2ccc3nccc(=O)n3c2C)cc1NS(=O)(=O)c1cc(F)ccc1F [compound 60]
inhibition at 0.5 µM (read-out: % inhibition AKT): 67.9%
inhibition at 0.5 µM (read-out: % inhibition p70s6k): 43.9%

COc1ncc(-c2ccc3ncc(F)c(=O)n3c2)cc1NS(=O)(=O)c1ccc(F)cc1Cl [compound 62]
inhibition at 0.5 µM (read-out: % inhibition AKT): 90.2%
inhibition at 0.5 µM (read-out: % inhibition p70s6k): 90.8%
IC50 (read-out: IC50 p-AKT): ≤ 50 nM
IC50 (read-out: IC50 p-p70S6K): 50 to 100 nM

COc1ncc(-c2ccc3ncc(F)c(=O)n3c2)cc1NS(=O)(=O)c1ccccc1Cl [compound 63]
inhibition at 0.5 µM (read-out: % inhibition AKT): 89.5%
inhibition at 0.5 µM (read-out: % inhibition p70s6k): 92.9%
IC50 (read-out: IC50 p-AKT): ≤ 50 nM
IC50 (read-out: IC50 p-p70S6K): ≤ 50 nM

COc1ncc(-c2ccc3ncc(F)c(=O)n3c2)cc1NS(=O)(=O)c1ccccc1F [compound 64]
inhibition at 0.5 µM (read-out: % inhibition AKT): 87.8%
inhibition at 0.5 µM (read-out: % inhibition p70s6k): 91.7%
IC50 (read-out: IC50 p-AKT): ≤ 50 nM
IC50 (read-out: IC50 p-p70S6K): ≤ 50 nM

COc1ncc(-c2ccc3ncc(F)c(=O)n3c2)cc1NS(=O)(=O)c1cc(F)ccc1F [compound 65]
inhibition at 0.5 µM (read-out: % inhibition AKT): 84.8%
inhibition at 0.5 µM (read-out: % inhibition p70s6k): 89.7%
IC50 (read-out: IC50 p-AKT): ≤ 50 nM
IC50 (read-out: IC50 p-p70S6K): 50 to 100 nM

COc1ncc(-c2ccc3ncc(F)c(=O)n3c2)cc1NS(=O)(=O)c1ccc(F)cc1C [compound 66]
inhibition at 0.5 µM (read-out: % inhibition AKT): 89%
inhibition at 0.5 µM (read-out: % inhibition p70s6k): 91.3%
IC50 (read-out: IC50 p-AKT): ≤ 50 nM
IC50 (read-out: IC50 p-p70S6K): ≤ 50 nM

COc1ncc(-c2ccc3ncc(F)c(=O)n3c2)cc1NS(=O)(=O)c1cccc(F)c1 [compound 67]
inhibition at 0.5 µM (read-out: % inhibition AKT): 85.8%
inhibition at 0.5 µM (read-out: % inhibition p70s6k): 89.7%
IC50 (read-out: IC50 p-AKT): ≤ 50 nM
IC50 (read-out: IC50 p-p70S6K): ≤ 50 nM

COc1ncc(-c2ccc3ncc(F)c(=O)n3c2)cc1NS(=O)(=O)c1c(F)cccc1F [compound 68]
inhibition at 0.5 µM (read-out: % inhibition AKT): 88%
inhibition at 0.5 µM (read-out: % inhibition p70s6k): 90.3%
IC50 (read-out: IC50 p-AKT): ≤ 50 nM
IC50 (read-out: IC50 p-p70S6K): 50 to 100 nM

COc1ncc(-c2ccc3ncc(F)c(=O)n3c2)cc1NS(=O)(=O)c1ccc(C(F)(F)F)cc1 [compound 69]
inhibition at 0.5 µM (read-out: % inhibition AKT): 85.4%
inhibition at 0.5 µM (read-out: % inhibition p70s6k): 87.6%
IC50 (read-out: IC50 p-AKT): ≤ 50 nM
IC50 (read-out: IC50 p-p70S6K): 50 to 100 nM

COc1ncc(-c2ccc3ncc(F)c(=O)n3c2)cc1NS(=O)(=O)c1ccc(C#N)cc1 [compound 70]
inhibition at 0.5 µM (read-out: % inhibition AKT): 75.4%
inhibition at 0.5 µM (read-out: % inhibition p70s6k): 99%
IC50 (read-out: IC50 p-AKT): 50 to 100 nM
IC50 (read-out: IC50 p-p70S6K): 50 to 100 nM

COc1ncc(-c2ccc3nccc(=O)n3n2)cc1NS(=O)(=O)c1ccc(F)cc1F [compound 71, 2,4-difluoro-N-(2-methoxy-5-(4-oxo-4H-pyrimido[1,2-b]pyridazin-7-yl)pyridin-3-yl)benzsulfamide]
inhibition at 0.5 µM (read-out: % inhibition AKT): 63.2%
inhibition at 0.5 µM (read-out: % inhibition p70s6k): 20.7%

COc1ncc(-c2ccc3nccc(=O)n3n2)cc1NS(=O)(=O)c1ccccc1F [compound 72]
inhibition at 0.5 µM (read-out: % inhibition AKT): 51.1%
inhibition at 0.5 µM (read-out: % inhibition p70s6k): 10.2%

COc1ncc(-c2ccc3nccc(=O)n3n2)cc1NS(=O)(=O)c1c(F)cccc1F [compound 73]
inhibition at 0.5 µM (read-out: % inhibition AKT): 40.5%
inhibition at 0.5 µM (read-out: % inhibition p70s6k): -2.1%

COc1ncc(-c2ccc3nccc(=O)n3n2)cc1NS(=O)(=O)c1ccccc1Cl [compound 74]
inhibition at 0.5 µM (read-out: % inhibition AKT): 74.1%
inhibition at 0.5 µM (read-out: % inhibition p70s6k): 26%

COc1ncc(-c2ccc3nccc(=O)n3n2)cc1NS(=O)(=O)c1cc(F)ccc1F [compound 76]
inhibition at 0.5 µM (read-out: % inhibition AKT): 54.3%
inhibition at 0.5 µM (read-out: % inhibition p70s6k): 12.2%

COc1ncc(-c2ccc3nccc(=O)n3n2)cc1NS(=O)(=O)c1ccc(C#N)cc1 [compound 77]
inhibition at 0.5 µM (read-out: % inhibition AKT): 50%
inhibition at 0.5 µM (read-out: % inhibition p70s6k): 4.8%

COc1ncc(-c2ccc3nccc(=O)n3n2)cc1NS(=O)(=O)c1ccc(F)cc1Cl [compound 78]
inhibition at 0.5 µM (read-out: % inhibition AKT): 72.6%
inhibition at 0.5 µM (read-out: % inhibition p70s6k): 32.6%

COc1ncc(-c2ccc3nccc(=O)n3n2)cc1NS(=O)(=O)c1cccc(F)c1 [compound 79]
inhibition at 0.5 µM (read-out: % inhibition AKT): 63.3%
inhibition at 0.5 µM (read-out: % inhibition p70s6k): 15.9%

COc1ncc(-c2ccc3nccc(=O)n3n2)cc1NS(=O)(=O)c1ccc(C(F)(F)F)cc1 [compound 80]
inhibition at 0.5 µM (read-out: % inhibition AKT): 54.6%
inhibition at 0.5 µM (read-out: % inhibition p70s6k): 14.4%

COc1ncc(-c2ccc3ncc(C)c(=O)n3c2)cc1NS(=O)(=O)c1ccc(Cl)cc1F [compound 82]
inhibition at 0.5 µM (read-out: % inhibition AKT): 92.1%
inhibition at 0.5 µM (read-out: % inhibition p70s6k): 88.1%
IC50 (read-out: IC50 p-AKT): ≤ 50 nM
IC50 (read-out: IC50 p-p70S6K): 100 to 250 nM

COc1ncc(-c2ccc3ncc(C)c(=O)n3c2)cc1NS(=O)(=O)c1ccccc1F [compound 84]
inhibition at 0.5 µM (read-out: % inhibition AKT): 93.8%
inhibition at 0.5 µM (read-out: % inhibition p70s6k): 88.7%
IC50 (read-out: IC50 p-AKT): ≤ 50 nM
IC50 (read-out: IC50 p-p70S6K): 50 to 100 nM

COc1ncc(-c2ccc3ncc(C)c(=O)n3c2)cc1NS(=O)(=O)c1ccccc1Cl [compound 85]
inhibition at 0.5 µM (read-out: % inhibition AKT): 95.8%
inhibition at 0.5 µM (read-out: % inhibition p70s6k): 88.3%
IC50 (read-out: IC50 p-AKT): ≤ 50 nM
IC50 (read-out: IC50 p-p70S6K): 50 to 100 nM

COc1ncc(-c2ccc3ncc(C)c(=O)n3c2)cc1NS(=O)(=O)c1cccc(F)c1 [compound 86]
inhibition at 0.5 µM (read-out: % inhibition AKT): 92.8%
inhibition at 0.5 µM (read-out: % inhibition p70s6k): 88.1%
IC50 (read-out: IC50 p-AKT): ≤ 50 nM
IC50 (read-out: IC50 p-p70S6K): 100 to 250 nM
